Reference: patent US20170021023A1 (RESDEVCO RESEARCH AND DEVELOPMENT CO. LTD., priority 2005, published 2017)

Assays:
epithelial conical cells = assay: Rabbit eye drop treatment for 3 months, electron microscopy of epithelial cells; format: in vivo, rabbits; settings: preservatives such as benzalkonium chloride, cetrimonium bromide, sodium ethylene diamine tetraacetate
Protocol: 3 rabbits were treated for 3 months twice daily with eye drops, adjusted to pH 7.0. The average cross section of the epithelial conical cells and the percentage of damaged cells were evaluated by electron microscopy.

dry eye patients = assay: Fluorescein Break Up Time (BUT) study in dry eye patients; format: in vivo, human; settings: concentration of 0.002%
Source text: The advantages resulting from the addition of a surface active agent include a decrease in the surface tension of the aqueous solution, thereby increasing the spread. […] It is accepted that a BUT of 10 sec. or less indicates dry eye syndrome; see Example 11 below.

Compound | Effect on conical cell damage caused by preservatives (epithelial conical cells) | Effect on diminished Break Up Time (BUT) (dry eye patients)
OCC(O)CO [glycerol] | counteracts conical cell damage | –
polysorbate 80 | – | increases the diminished Break Up Time (BUT)
